The source of these data is a melting point compilation (Tetko et al.; mined from patent text by program, amines drawn as free bases though some values may be those of a salt).

Structures are written as SMILES.

For `CCc1nn(C2CCC2)c2cc(C(=O)Nc3c(Cl)cncc3Cl)ccc12`, the melting point (usually the temperature of the solid-liquid transition) lay in the range of 166 to 168 °C.
`Oc1cccc(C(O)(c2nccs2)C(F)(F)F)c1` (centres undefined) yielded a melting point of 94 to 96 °C.
Then `CC1(C)CC(C)(c2ccc(O)cc2)c2cc(O)ccc21` (centres undefined), with 202 °C; and `CNCC1Cc2cc(F)cc(-c3c(Cl)cccc3Cl)c2O1` (centres undefined), with 140 to 142 °C.
Then `CCCC(=O)Nc1ccc(C2=NNC(=O)NC2C)cc1` (centres undefined), with 232 to 234 °C.
Then `C#CCOc1cc(-n2nnn(CCC)c2=O)c(Cl)cc1Cl`, with 70 to 72 °C; and `Nc1ccc(C2=NN3CCCC3Cc3cc4c(cc32)OCO4)cc1` (centres undefined), with 153 to 155 °C.
The molecule `CC12CC(N3CCC(O)CC3)C(O)CC1CCC1C2CCC2(C)C(O)C(N3CCC4(CC3)OCCO4)CC12` (centres undefined) came in with a melting point of 199 to 201 °C.
For the molecule `CCCCCCCCOC(=O)C(=C1SCCS1)c1cccc(C(F)(F)F)c1`, the melting point fell in the range of 42 to 43 °C.
With `CCCC(=O)Nc1ccc(OC)c(C(C)=O)c1` the figure was 113 °C; with `COC(=O)c1cc(Cl)cc(Cl)n1`, 75 to 77 °C.
For the molecule `CCCC=Cc1c(C(C)C)nc(C(C)C)c(CO)c1-c1ccccc1C`, the melting point lay within 76 to 79 °C.
Then `O=C(O)CC1(c2ccc(Cl)cc2)Oc2ccccc2O1`, with 138 °C.
With `CN1CC(CCCl)Oc2ccc([N+](=O)[O-])cc2C1=S` (centres undefined) the figure was 153 to 155 °C.
With `C[C@H](COS(C)(=O)=O)NC(=O)OC(C)(C)C` the figure was 65 to 68 °C; with `O=C(O)c1cccnc1N1CCc2ccccc2C1`, 150 to 152 °C.
`C[C@@H](CO)COc1ccc(-c2ccc(Cl)nn2)cc1` yielded a melting point of 134 to 138 °C.
Then `c1cc(C2CCCCC2)ccc1N=C1NCCCN1`, with 179 to 181 °C; and `CC[C@@H]1NC(=O)C[C@]1(C)O`, with 87 to 111 °C; and `CC(CCC(O)C(C)(C)O)C1CCC2C3CC=C4CC(O)CCC4(C)C3CCC12C` (centres undefined), with 195 to 199 °C.
Take `COc1cc(C)c(C(=O)c2ccc(OCc3nc(-c4ccccc4)oc3C)cc2)c(O[C@H](C)C(=O)O)c1`: the melting point lay within 122 to 123 °C.
Then `C=CCOc1cccc2c1C(=O)N(C(C)(C#N)C(C)C)C2=O` (centres undefined), with 54 to 58 °C; and `O=C1C2=CSCCN2C(=O)N1c1ccc(Cl)cc1F`, with 118 to 120 °C; and `CC1(C)CC(=O)c2c(NCCCn3ccnc3)sc(-c3cc[nH]n3)c2C1`, with 85 °C.
Turning to `CN(C)CCc1c(CC(C#N)(c2ccccc2)c2ccccc2)c2ccccc2n1C`, the melting point fell in the range of 133 to 136 °C.
With `C=C1N(CC)C(=O)OC12CCN(CCC=C(c1ccc(F)cc1)c1ccc(F)cc1)CC2` the figure was 138 to 139 °C; with `NC(=S)c1c(Cl)c(-c2cccnc2)n2c1CN(C(=O)Nc1ccc(F)cc1)CC2`, 214 to 216 °C.
With `COc1cccc(CNc2nccc(-c3cc(N4CCN(CCCN5CCCC5)CC4)c4cc(OC)ccc4c3)n2)c1`, the melting point lay within 160 to 167 °C.
With `CN1CCN(c2cccc3ccc(OS(=O)(=O)C(F)(F)F)cc23)CC1` the figure was 70 to 71 °C; with `O=C(Nc1ccc2cc(CN3CCCC3)cnc2c1)c1ccc(-c2ccc(Cl)cc2)cc1F`, 177 °C.
Consider `COC=C(Oc1cccc(-c2ccc(Cl)cc2)n1)C(=O)OC`, for which the melting point lay in the range of 50 to 54 °C.
With `CC(=O)N1CCC(CCCC(=O)c2ccc3c(c2)CCNCC3)CC1` the figure was 90 to 91 °C; with `CCNC(=NS(=O)(=O)c1cccc(Cl)c1)N1CC(C)(C)C=N1`, 62 to 67 °C.
Then `CC(=O)Nc1ccc(CBr)c(C)c1C#N`, with 152 to 153 °C.
Turning to `Cc1sc2c(c1C)C(c1ccc(Cl)cc1)=NC(CC(=O)NCc1cccnc1)c1nnc(C)n1-2` (centres undefined), the melting point fell in the range of 180 to 183 °C.
With `CCc1nn(CC(=O)NN)c(CC)c1Oc1cc(Cl)cc(Cl)c1` the figure was greater than 250 °C; with `COc1cc(-c2ccc(NN)nn2)ccc1OC(F)F`, 154 °C.
With `COc1ccc(CC(N)=O)cc1OC` the figure was 142 to 144 °C; with `CC1(C)CC(=O)C2=C(C1)NC1=C(C(=O)CC(C)(C)C1)C2c1ccc(Cl)c(OCc2ccccc2)c1`, 243 to 244 °C.
For `O=C(O)[C@@H]1Cc2c(ncn2Cc2ccccc2)CN1C(=O)C(c1ccc(Cl)cc1)c1ccc(Cl)cc1`, the melting point is 162 to 170 °C.
Then `CN1CCN(C(=O)CC2c3ccccc3C(=O)N2c2ccc(Cl)cn2)CC1` (centres undefined), with 190 to 193 °C; and `O=C(O)COc1ccc(C(=O)C=Cc2ccccc2)c(Cl)c1Cl`, with 190 to 191 °C; and `Cn1nc(-c2c(F)cccc2Cl)nc1-c1cccc([N+](=O)[O-])c1Cl`, with 112 to 114 °C.
Then `COc1cc(C=O)cc(F)c1OC`, with 51 to 53 °C.
With `CC(C(N)=O)c1ccc2c(c1)C(=O)Cc1ccc(Cl)cc1S2` (centres undefined) the figure was 207 to 208 °C.
In the case of `COC(=O)c1ccc(OCCCN2CCC(C(=O)c3nc4ccccc4s3)CC2)cc1`, the melting point is 108 to 110 °C.
Then `CCOCC1OC(n2cnc3c(NC4CCCC4)ncnc32)C(O)C1O` (centres undefined), with 134 to 136 °C; and `COc1cn(-c2ccc(-n3cccn3)cc2F)nc(-c2ccnn2-c2ccccc2F)c1=O`, with 202 to 206 °C.
With `CC1(C)CC(n2cncc2C(=O)O)c2ccccc2O1` (centres undefined) the figure was 246 °C; with `O=C(O)c1ccc(CNS(=O)(=O)c2ccc(F)cc2)cc1`, 231 to 234 °C; with `COC(=O)Cn1c(Cc2ccccc2)ccc(NC(=O)CCc2ccccc2)c1=O`, 95 to 97 °C.
With `CS(=O)(=O)c1ccc(C2=C(c3ccccc3)C(=O)OC23CCC3)cc1` the figure was 159 to 160 °C.
As for `CC(C)c1ccc(C(=O)Cc2c(Cl)cccc2Cl)c(C(C)C)c1OS(N)(=O)=O`, the melting point lay within 203 to 205 °C.
The molecule `COc1cc(Nc2ncc(N)c(-c3ccccc3)n2)cc(OC)c1OC` yielded a melting point of 149 to 150 °C.
Then `COC(=O)CCn1c(=O)n(CCN2CCN(c3cccc(OC)c3)CC2)c(=O)c2cscc21`, with 136 to 137 °C.
Then `COc1ccnc(C(C)Sc2nc3cc(OC(F)F)c(C)cc3[nH]2)c1` (centres undefined), with 183 to 184 °C; and `COC(=O)C(=O)Nc1cccc2c1C(=O)N(C1CCC(=O)NC1=O)C2=O` (centres undefined), with 247 to 249 °C.
For the molecule `CC(C)(C)OC(=O)C[C@@H]1C[C@@H](COS(C)(=O)=O)NC1=O`, the melting point lay within 114 to 116 °C.
Then `NC(CN1C(=O)C2(COc3cc4c(cc32)OCO4)c2c(Cl)cccc21)=NO` (centres undefined), with 180 to 185 °C.
Consider `Nc1c(Cl)cc(C(O)CNCCCCCCOCCCCc2ncccc2O)cc1Cl` (centres undefined), for which the melting point lay in the range of 95 to 96 °C.
With `CC1C(=O)Oc2cc(C3CCCCC3)ccc21` (centres undefined) the figure was 87 to 89 °C; with `CC(C)(Cl)CC(=O)c1cc(C(C)(C)C)c(O)c(C(C)(C)C)c1`, 101 to 102 °C.
Then `O=c1[nH][nH]c(=O)c2c(O)c3c(Cl)c(Cl)c(Cl)cc3nc12`, with 123 to 124 °C.
In the case of `CCCC[C@H](NC(=O)[C@H](CCC(=O)O)NC(=O)OCc1ccccc1)C(=O)CSCc1ccco1`, the melting point lay within 67 to 71 °C.
Then `COc1cc2c(cc1Br)CC(SC)=NN=C2c1ccc([N+](=O)[O-])cc1`, with 225 to 227 °C; and `C=CCNc1nc2c(c(N3CCN(C)CC3)n1)CCCN2CC=C`, with 81 °C; and `COP(=O)(Cc1ccc2ccccc2c1)OC`, with 80 to 81 °C.
With `CN(C)C(=O)c1cc(-c2nccs2)[nH]c1C(CC1CCOCC1)c1ccc(S(=O)(=O)C2CC2)cc1` (centres undefined) the figure was 180 to 182 °C.
With `NCc1ccccc1-c1ccc(C(=O)N2Cc3ccc(C(=O)NCc4cccnc4)n3Cc3ccccc32)cc1` the figure was 115 to 120 °C; with `Cc1cc(Cc2cnc(NCCCCc3ncc(Br)cc3C)[nH]c2=O)cnc1C`, 126 to 128 °C.
Molecule `O=C1OC(=O)c2cc3ncccc3c3cc([N+](=O)[O-])cc1c23` returned a melting point greater than 300 °C.
Then `CCCC(=O)c1c(C)cc(C)cc1O`, with 48 to 52 °C; and `CCOC(=O)C(=NOC)C(C)=NNC(=O)OC(C)(C)C`, with 144 to 145 °C; and `COc1ccc(C(=O)Nc2ccccc2C(O)Cc2ccccn2)cc1` (centres undefined), with 127 to 128 °C.
Turning to `COc1ccc2c(c1)CCC1C2CCC2(C)C(NC(c3ccccc3)c3ccccc3)CCC12` (centres undefined), the melting point fell in the range of 127 to 129 °C.
Take `c1ccc2sc(SSN3CCCCCC3)nc2c1`: the melting point was 65 to 67 °C.
With `CO[C@H]1CC[C@H](N(C)C(=O)c2ccc3nonc3c2)CC1` the figure was 143 to 144 °C; with `CCCCOC(=O)NS(=O)(=O)CCc1c(C(F)(F)F)nn(C)c1-n1ccc2cc(Cl)cnc21`, 136 to 137 °C; with `Cn1cncc1C(CC#N)(c1ccc(Cl)cc1)c1ccc2c(c1)c(-c1cccc(Cl)c1)cc(=O)n2C` (centres undefined), 151 °C.
With `CN(CCC(Oc1ccc(C(=O)c2cc3ccccc3s2)cc1)c1ccc(Cl)cc1)CC(=O)O` (centres undefined) the figure was 101 to 112 °C; with `CNS(=O)(=O)CC(=O)C1=C(C)NC(C)=C(C(=O)OC)C1c1cccc([N+](=O)[O-])c1` (centres undefined), 173 to 176 °C.
Then `Cn1ccnc1-c1ccc(C(=O)CN=[N+]=[N-])cc1`, with greater than 250 °C; and `CC(=O)OCc1cccc([N+](=O)[O-])c1Br`, with 60 to 63 °C; and `CN1C(=O)c2cccnc2NS1(=O)=O`, with 290 to 292 °C.
`COc1cc2c(cc1OC)C1(CCC(=O)NC1=O)CCC2=O` (centres undefined) had a melting point of 269 to 271 °C.
Then `Cc1c(C)c(C=O)c2ncccc2c1C`, with 162 °C.
Then `CN(C)C=Nn1cc(-c2ccc([N+](=O)[O-])o2)nn1`, with 239 to 241 °C; and `CCN1C(=O)CCCc2c1ccc(Nc1ncc(Cl)c(Nc3ccc(N4CCN(C)CC4)cc3OC)n1)c2OC`, with 186 to 187 °C.
Then `O=C1c2ccccc2CN1C1CCN(C/C=C\CC2c3ccccc3-c3ccccc32)CC1`, with 112 to 116 °C.
